# Data published in patent US7119262B1, “Production of transgenic poinsettia” (priority 1997, dated 2006).
# Read-outs that look alike come from different tables or passages of the source. Where no end group is shown, it is not given here.
# Legend:
# [1] = test system: bacterial and fungal phytopathogens; assay: In vitro anti-microbial activity of lytic peptides (statement in words); type: cell-based
# Botrytis cinerea = conditions: 24 h
# [2] = test system: Phytophthora parasitica (petunia)
# Rhyzoctonia solani R2 = conditions: 24 h
# Thielaviopsis basicola = conditions: 24 h
# Fusarium graminearum = conditions: non-germinated spores, 24 hrs
# [3] = test system: ethylene-induced epinasty; conditions: plants sprayed with 4 mM solution, 18 hrs later exposed to ethylene for 24 hours
# Method: To test for ethylene sensitivity, untransformed and transgenic poinsettia plants were exposed to 15 μl/liter ethylene for 24 hours to induce epinasty.
# At 18 hrs after STS treatment, the STS-treated poinsettias were exposed to ethylene for 24 hours.
# Erwinia carotovora = conditions: 24 h
# Pseudomonas syringae = conditions: 24 h
# [4] = test system: Phytophthora parasitica (vinca); conditions: vinca isolate, 24 hrs
# Fusarium solani = conditions: 24 h
# Bemisia = assay: Whitefly artificial feeding study with tryptamine-supplemented diets; type: in vivo, Bemisia tabaci; conditions: artificial diet
# Method: To assess whether tryptamine was acutely toxic to whitefly, artificial feeding studies were conducted in which whiteflies were fed artificial diets supplemented with a range of tryptamine concentrations.
# [5] = petunia isolate, germinated spores, 24 hrs
compound,measurement,setting,value
MSI-55 (KIAGKIAKIAGKIAKIAGKIA),antibacterial and anti-fungal activity in vitro,[1],potent antibacterial and anti-fungal activity
GIGKFLKSAKKFGKAFVKILNS [MSI-99],Minimum Inhibitory Concentration,Botrytis cinerea,8 µg/mL
same,Minimum Inhibitory Concentration,[2]; 24 h,8 to 16 µg/mL
same,Minimum Inhibitory Concentration,Rhyzoctonia solani R2,16 µg/mL
same,Minimum Inhibitory Concentration,Thielaviopsis basicola,4 µg/mL
same,Minimum Inhibitory Concentration,Fusarium graminearum,4 µg/mL
silver thiosulfate [STS],signs of epinasty or wilting after ethylene treatment,[3],"little, if any, signs of epinasty or wilting"
"GIGKFLHSAKKFGKAFVGEIMNS [Mag 2, magainin 2, reference compound]",Minimum Inhibitory Concentration,[2]; 24 h,>128 µg/mL
same,Minimum Inhibitory Concentration,Rhyzoctonia solani R2,16 to 32 µg/mL
same,Minimum Inhibitory Concentration,Erwinia carotovora,32 µg/mL
same,Minimum Inhibitory Concentration,Pseudomonas syringae,32 µg/mL
same,Minimum Inhibitory Concentration,Fusarium graminearum,4 to 8 µg/mL
GMASKAGAIAGKIAKVALKAL-OH [PGL],Minimum Inhibitory Concentration,[4]; germinated spores,>128 µg/mL
same,Minimum Inhibitory Concentration,[4]; non-germinated spores,>256 µg/mL
same,Minimum Inhibitory Concentration,[2]; [5],>128 µg/mL
same,Minimum Inhibitory Concentration,Rhyzoctonia solani R2,16 to 32 µg/mL
same,Minimum Inhibitory Concentration,Erwinia carotovora,32 µg/mL
same,Minimum Inhibitory Concentration,Pseudomonas syringae,>64 µg/mL
same,Minimum Inhibitory Concentration,Fusarium graminearum,4 to 8 µg/mL
"KRKRAVKRVGRRLKKLARKIARLGVAF [Line D5-C, D5-C]",Minimum Inhibitory Concentration,[4]; germinated spores,16 to 32 µg/mL
same,Minimum Inhibitory Concentration,[4]; non-germinated spores,16 µg/mL
same,Minimum Inhibitory Concentration,[2]; [5],16 to 32 µg/mL
same,Minimum Inhibitory Concentration,Fusarium solani,4 µg/mL
same,Minimum Inhibitory Concentration,Rhyzoctonia solani R2,32 to 64 µg/mL
same,Minimum Inhibitory Concentration,Thielaviopsis basicola,16 µg/mL
"NCCc1c[nH]c2ccccc12 [Tryptamine, tryptamine]",tryptamine concentration toxic to Bemisia,Bemisia,50 to 100 µg/mL
